pIC50: −log10 of the molar value. Counter-ions that a name gives are not always drawn.
Assays:
[1] = test system: Intracellular H3K27me3 in HCT116 cells; assay: Intracellular H3K27me3 inhibitory activity evaluation; type: cell-based; conditions: Homo sapiens, HCT-116, 72 h, 3 days, AlphaLISA, read-out: Test Example 3 H3K27me3 inhibition (HCT116) IC50
Protocol: The HCT116 cells were purchased from American Type Culture Collection (ATCC). […] Intracellular H3K27me3 was quantified using AlphaLISA H3K27me3 Cellular Detection Kit (PerkinElmer, Inc., #AL722F). The cells thus cultured in each well were washed with 100 μL of PBS. Cell-Histone Lysis buffer diluted 6-fold with PBS was added thereto at 80 μL/well, and the plate was then incubated at room temperature for 15 minutes while shaken. Then, Cell-Histone Extraction buffer was added thereto at 40 μL/well, and the plate was incubated at room temperature for 10 minutes while shaken. […] An AlphaLISA anti-H3K27me3 Acceptor beads/Biotinylated Antibody anti-Histone H3 (C-ter) mixed solution was added thereto at 3.3 μL/well, and the plate was incubated at room temperature for 60 minutes. Then, Streptavidin (SA)-coated Donor beads were added thereto at 3.3 μL/well, and the plate was incubated at room temperature for 30 minutes with the plate shielded from light.

PRC2-EZH2 (WT EZH2) = target: T1, PRC2-EZH2 (WT EZH2) (Homo sapiens, UniProt Q15910); assay: EZH2 methyltransferase inhibitory activity evaluation; type: biochemical; conditions: PRC2-EZH2, biotin-H3 peptide, 3H-SAM, 2 hours
T1 construct: made in house
Protocol: EZH2 Methyltransferase Inhibitory Activity Evaluation
(§1) Then, the residual radioactivity was measured using TopCount NXT HTS (PerkinElmer, Inc., model C384V01).

PRC2-EZH1 (WT EZH1) = PRC2-EZH1 (WT EZH1) (Homo sapiens, UniProt Q92800); assay: EZH1 methyltransferase inhibitory activity evaluation
Sequence of PRC2-EZH1 (WT EZH1) (Q92800 whole entry): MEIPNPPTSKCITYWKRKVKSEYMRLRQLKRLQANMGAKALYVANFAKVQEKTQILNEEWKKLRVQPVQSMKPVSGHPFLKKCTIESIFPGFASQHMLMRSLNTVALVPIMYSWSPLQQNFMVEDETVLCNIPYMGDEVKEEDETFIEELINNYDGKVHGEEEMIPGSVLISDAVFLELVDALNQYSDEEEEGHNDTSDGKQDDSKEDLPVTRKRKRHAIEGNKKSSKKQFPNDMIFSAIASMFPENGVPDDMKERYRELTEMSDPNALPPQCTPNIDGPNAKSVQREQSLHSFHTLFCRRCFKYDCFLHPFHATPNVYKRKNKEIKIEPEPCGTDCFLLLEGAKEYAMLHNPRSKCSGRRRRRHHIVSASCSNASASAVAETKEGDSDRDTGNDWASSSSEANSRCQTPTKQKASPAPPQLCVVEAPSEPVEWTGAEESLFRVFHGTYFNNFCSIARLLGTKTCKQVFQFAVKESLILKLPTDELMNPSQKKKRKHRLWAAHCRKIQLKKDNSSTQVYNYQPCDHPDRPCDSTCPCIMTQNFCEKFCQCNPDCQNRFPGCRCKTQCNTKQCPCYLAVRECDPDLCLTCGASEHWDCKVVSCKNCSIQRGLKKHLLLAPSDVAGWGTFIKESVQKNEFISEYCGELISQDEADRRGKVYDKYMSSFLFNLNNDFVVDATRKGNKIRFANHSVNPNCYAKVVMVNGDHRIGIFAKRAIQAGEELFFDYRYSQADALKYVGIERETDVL
Sequence of PRC2-EZH1 (WT EZH1) (O75530 whole entry partner): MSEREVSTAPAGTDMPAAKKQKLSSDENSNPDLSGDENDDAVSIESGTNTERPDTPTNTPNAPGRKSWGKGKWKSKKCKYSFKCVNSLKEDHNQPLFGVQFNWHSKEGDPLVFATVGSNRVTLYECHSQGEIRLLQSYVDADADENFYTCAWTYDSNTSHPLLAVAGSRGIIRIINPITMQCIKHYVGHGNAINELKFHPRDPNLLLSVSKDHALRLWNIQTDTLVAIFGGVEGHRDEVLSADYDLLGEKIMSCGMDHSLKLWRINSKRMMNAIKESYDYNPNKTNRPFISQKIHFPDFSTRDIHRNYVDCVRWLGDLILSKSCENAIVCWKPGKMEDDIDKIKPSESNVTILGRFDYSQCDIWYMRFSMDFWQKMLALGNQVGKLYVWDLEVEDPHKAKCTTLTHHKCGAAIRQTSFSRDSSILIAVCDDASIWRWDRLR
Sequence of PRC2-EZH1 (WT EZH1) (Q15022 whole entry partner): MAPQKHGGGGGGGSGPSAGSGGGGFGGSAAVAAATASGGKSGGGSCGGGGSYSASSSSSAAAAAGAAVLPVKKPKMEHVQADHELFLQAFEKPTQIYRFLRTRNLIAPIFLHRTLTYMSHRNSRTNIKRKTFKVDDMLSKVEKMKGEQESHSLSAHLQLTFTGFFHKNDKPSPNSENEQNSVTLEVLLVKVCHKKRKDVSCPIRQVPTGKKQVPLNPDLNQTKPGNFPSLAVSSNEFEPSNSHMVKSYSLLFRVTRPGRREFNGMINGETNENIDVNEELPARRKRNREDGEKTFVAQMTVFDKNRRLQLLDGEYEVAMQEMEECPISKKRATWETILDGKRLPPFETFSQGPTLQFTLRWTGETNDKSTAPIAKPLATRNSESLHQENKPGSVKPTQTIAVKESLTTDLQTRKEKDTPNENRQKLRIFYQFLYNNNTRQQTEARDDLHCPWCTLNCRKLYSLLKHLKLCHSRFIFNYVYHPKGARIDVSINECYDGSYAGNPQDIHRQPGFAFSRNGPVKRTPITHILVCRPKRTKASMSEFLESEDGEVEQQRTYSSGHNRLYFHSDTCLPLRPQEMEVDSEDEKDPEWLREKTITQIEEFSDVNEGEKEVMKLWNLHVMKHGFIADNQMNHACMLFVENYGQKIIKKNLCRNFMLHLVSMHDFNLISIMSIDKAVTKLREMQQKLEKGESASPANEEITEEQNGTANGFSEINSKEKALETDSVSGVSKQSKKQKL
Sequence of PRC2-EZH1 (WT EZH1) (Q09028 whole entry partner): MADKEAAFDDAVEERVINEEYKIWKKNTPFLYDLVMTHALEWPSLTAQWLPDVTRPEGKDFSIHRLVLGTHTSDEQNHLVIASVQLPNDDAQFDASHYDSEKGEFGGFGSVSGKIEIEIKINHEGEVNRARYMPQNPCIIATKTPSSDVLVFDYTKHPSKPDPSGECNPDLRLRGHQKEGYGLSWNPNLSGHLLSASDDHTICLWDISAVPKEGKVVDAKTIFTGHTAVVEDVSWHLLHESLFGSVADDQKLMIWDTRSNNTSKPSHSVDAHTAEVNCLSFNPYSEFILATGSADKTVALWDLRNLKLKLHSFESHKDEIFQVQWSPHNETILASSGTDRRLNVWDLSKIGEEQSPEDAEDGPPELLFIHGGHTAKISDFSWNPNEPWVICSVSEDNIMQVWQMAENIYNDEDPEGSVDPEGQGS
Sequence of PRC2-EZH1 (WT EZH1) (Q6ZN18 whole entry partner): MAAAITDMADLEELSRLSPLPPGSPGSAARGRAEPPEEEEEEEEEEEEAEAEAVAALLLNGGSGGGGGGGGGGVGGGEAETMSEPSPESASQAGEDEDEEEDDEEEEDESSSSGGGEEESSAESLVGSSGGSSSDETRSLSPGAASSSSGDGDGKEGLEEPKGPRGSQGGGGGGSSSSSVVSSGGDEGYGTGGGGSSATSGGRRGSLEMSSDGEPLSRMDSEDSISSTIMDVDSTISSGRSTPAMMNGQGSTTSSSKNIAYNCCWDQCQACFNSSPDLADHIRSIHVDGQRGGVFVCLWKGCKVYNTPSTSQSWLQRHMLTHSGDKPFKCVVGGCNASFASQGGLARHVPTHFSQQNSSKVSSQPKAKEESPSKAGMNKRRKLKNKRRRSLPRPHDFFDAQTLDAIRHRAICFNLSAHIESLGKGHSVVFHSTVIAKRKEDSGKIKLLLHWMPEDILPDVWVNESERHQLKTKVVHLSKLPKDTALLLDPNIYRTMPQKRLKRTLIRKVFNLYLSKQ
Protocol: EZH1 Methyltransferase Inhibitory Activity Evaluation
as §1

T1 sequence (Q15910 whole entry): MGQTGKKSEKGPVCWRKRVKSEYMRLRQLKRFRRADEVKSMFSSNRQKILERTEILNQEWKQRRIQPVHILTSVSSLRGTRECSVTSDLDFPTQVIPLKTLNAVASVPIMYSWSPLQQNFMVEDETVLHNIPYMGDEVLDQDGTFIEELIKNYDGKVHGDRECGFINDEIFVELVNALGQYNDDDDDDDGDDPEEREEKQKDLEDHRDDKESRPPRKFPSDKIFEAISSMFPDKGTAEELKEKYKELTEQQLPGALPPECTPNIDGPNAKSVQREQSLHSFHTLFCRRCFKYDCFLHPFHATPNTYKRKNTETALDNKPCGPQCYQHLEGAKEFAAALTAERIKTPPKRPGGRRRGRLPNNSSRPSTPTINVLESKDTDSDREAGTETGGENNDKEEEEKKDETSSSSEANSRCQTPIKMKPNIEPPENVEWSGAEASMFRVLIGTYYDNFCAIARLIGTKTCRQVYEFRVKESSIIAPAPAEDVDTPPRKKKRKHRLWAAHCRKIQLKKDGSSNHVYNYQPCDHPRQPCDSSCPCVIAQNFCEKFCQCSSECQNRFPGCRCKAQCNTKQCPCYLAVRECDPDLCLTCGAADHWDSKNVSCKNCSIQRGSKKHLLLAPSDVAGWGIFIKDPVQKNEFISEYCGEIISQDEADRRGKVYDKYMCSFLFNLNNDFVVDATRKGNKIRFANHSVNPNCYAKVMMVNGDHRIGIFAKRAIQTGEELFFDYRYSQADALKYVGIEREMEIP
T1 sequence (O75530 whole entry partner): as the sequence (O75530 whole entry partner) above
T1 sequence (Q15022 whole entry partner): as the sequence (Q15022 whole entry partner) above

| Compound | pIC50 [1] | pIC50 (PRC2-EZH2 (WT EZH2)) | pIC50 (PRC2-EZH1 (WT EZH1)) |
| --- | --- | --- | --- |
| Cc1cc(C)c(CNC(=O)c2cc(-c3cccnc3)c3c(c2C)OC(C)([C@H]2CC[C@H](N(C)C)CC2)O3)c(=O)[nH]1 (relative stereo) [Example 64, 2-[trans-4-(Dimethylamino)cyclohexyl]-N-[(4,6-dimethyl-2-oxo-1,2-dihydropyridin-3-yl)methyl]-2,4-dimethyl-7-(3-pyridyl)-1,3-benzodioxole-5-carboxamide] | 8.17 | 7.85 | 7.66 |
| Cc1cc(C)c(CNC(=O)c2cc(-c3cnn(C)c3)c3c(c2C)OC(C)([C@H]2CC[C@H](N(C)C)CC2)O3)c(=O)[nH]1 (relative stereo) [Example 65, 2-[trans-4-(Dimethylamino)cyclohexyl]-N-[(4,6-dimethyl-2-oxo-1,2-dihydropyridin-3-yl)methyl]-2,4-dimethyl-7-(1-methylpyrazol-4-yl)-1,3-benzodioxole-5-carboxamide hydrochloride] | 7.89 | 7.74 | 7.64 |
| C=Cc1cc(C(=O)NCc2c(C)cc(C)[nH]c2=O)c(C)c2c1OC(C)([C@H]1CC[C@H](N(C)C)CC1)O2 (relative stereo) [Example 66, 2-[trans-4-(Dimethylamino)cyclohexyl]-N-[(4,6-dimethyl-2-oxo-1,2-dihydropyridin-3-yl)methyl]-2,4-dimethyl-7-vinyl-1,3-benzodioxole-5-carboxamide] | 8.77 | 7.66 | 7.57 |
| C#Cc1cc(C(=O)NCc2c(C)cc(C)[nH]c2=O)c(C)c2c1OC(C)([C@H]1CC[C@H](N(C)C)CC1)O2 (relative stereo) [Example 67, 2-[trans-4-(Dimethylamino)cyclohexyl]-N-[(4,6-dimethyl-2-oxo-1,2-dihydropyridin-3-yl)methyl]-7-ethynyl-2,4-dimethyl-1,3-benzodioxole-5-carboxamide] | 9.00 | 7.72 | 7.77 |
| Cc1cc(C)c(CNC(=O)c2cc(C3CC3)c3c(c2C)OC(C)([C@H]2CC[C@H](N(C)C)CC2)O3)c(=O)[nH]1 (relative stereo) [Example 68, 7-Cyclopropyl-2-[trans-4-(dimethylamino)cyclohexyl]-N-[(4,6-dimethyl-2-oxo-1,2-dihydropyridin-3-yl)methyl]-2,4-dimethyl-1,3-benzodioxole-5-carboxamide] | 8.80 | 7.74 | 7.54 |
| Cc1cc(C)c(CNC(=O)c2cc(-c3ccnc(N4CCN(C)CC4)c3)c3c(c2C)OC(C)([C@H]2CC[C@H](N(C)C)CC2)O3)c(=O)[nH]1 (relative stereo) [Example 69, 2-[trans-4-(Dimethylamino)cyclohexyl]-N-[(4,6-dimethyl-2-oxo-1,2-dihydropyridin-3-yl)methyl]-2,4-dimethyl-7-[2-(4-methylpiperazin-1-yl)-4-pyridyl]-1,3-benzodioxole-5-carboxamide] | 7.54 | 7.62 | 7.49 |
| Cc1cc(C)c(CNC(=O)c2cc(-c3cncs3)c3c(c2C)OC(C)([C@H]2CC[C@H](N(C)C)CC2)O3)c(=O)[nH]1 (relative stereo) [Example 70, 2-[trans-4-(Dimethylamino)cyclohexyl]-N-[(4,6-dimethyl-2-oxo-1,2-dihydropyridin-3-yl)methyl]-2,4-dimethyl-7-thiazol-5-yl-1,3-benzodioxole-5-carboxamide hydrochloride] | 8.37 | 7.59 | 7.42 |
| Cc1cc(C)c(CNC(=O)c2cc(C3=CCN(C)CC3)c3c(c2C)OC(C)([C@H]2CC[C@H](N(C)C)CC2)O3)c(=O)[nH]1 (relative stereo) [Example 71, 2-[trans-4-(Dimethylamino)cyclohexyl]-N-[(4,6-dimethyl-2-oxo-1,2-dihydropyridin-3-yl)methyl]-2,4-dimethyl-7-(1-methyl-3,6-dihydro-2H-pyridin-4-yl)-1,3-benzodioxole-5-carboxamide] | 7.00 | 7.72 | 7.37 |
| CC(=O)c1cc(C(=O)NCc2c(C)cc(C)[nH]c2=O)c(C)c2c1OC(C)([C@H]1CC[C@H](N(C)C)CC1)O2 (relative stereo) [Example 72, 7-Acetyl-2-[trans-4-(dimethylamino)cyclohexyl]-N-[(4,6-dimethyl-2-oxo-1,2-dihydropyridin-3-yl)methyl]-2,4-dimethyl-1,3-benzodioxole-5-carboxamide hydrochloride] | 7.89 | 7.77 | 7.12 |
| CCc1cc(C)[nH]c(=O)c1CNC(=O)c1cc(-c2ccc(N3CCN(CC)CC3)nc2)c2c(c1C)OC(C)([C@H]1CC[C@H](N(C)C)CC1)O2 (relative stereo) [Example 73, 2-[trans-4-(Dimethylamino)cyclohexyl]-N-[(4-ethyl-6-methyl-2-oxo-1,2-dihydropyridin-3-yl)methyl]-7-[6-(4-ethylpiperazin-1-yl)-3-pyridyl]-2,4-dimethyl-1,3-benzodioxole-5-carboxamide hydrochloride] | 8.21 | 7.66 | 7.92 |
| CCCc1cc(C)[nH]c(=O)c1CNC(=O)c1cc(-c2ccc(N3CCN(CC)CC3)nc2)c2c(c1C)OC(C)([C@H]1CC[C@H](N(C)C)CC1)O2 (relative stereo) [Example 74, 2-[trans-4-(Dimethylamino)cyclohexyl]-7-[6-(4-ethylpiperazin-1-yl)-3-pyridyl]-2,4-dimethyl-N-[(6-methyl-2-oxo-4-propyl-1,2-dihydropyridin-3-yl)methyl]-1,3-benzodioxole-5-carboxamide] | 7.64 | 7.54 | 7.89 |
| CCc1cc(C)[nH]c(=O)c1CNC(=O)c1cc(-c2cnn(C)c2)c2c(c1C)OC(C)([C@H]1CC[C@H](N(C)C)CC1)O2 (relative stereo) [Example 75, 2-[trans-4-(Dimethylamino)cyclohexyl]-N-[(4-ethyl-6-methyl-2-oxo-1,2-dihydropyridin-3-yl)methyl]-2,4-dimethyl-7-(1-methylpyrazol-4-yl)-1,3-benzodioxole-5-carboxamide hydrochloride] | 7.96 | 7.59 | 7.68 |
| CCc1cc(C(=O)NCc2c(C)cc(C)[nH]c2=O)c(C)c2c1OC(C)([C@H]1CC[C@H](N(C)C)CC1)O2 (relative stereo) [Example 76, 2-[trans-4-(Dimethylamino)cyclohexyl]-N-[(4,6-dimethyl-2-oxo-1,2-dihydropyridin-3-yl)methyl]-7-ethyl-2,4-dimethyl-1,3-benzodioxole-5-carboxamide] | 9.06 | 7.92 | 7.70 |
| Cc1cc(C)c(CNC(=O)c2cc(C)c3c(c2C)O[C@@](C)([C@H]2CC[C@H](N(C)C)CC2)O3)c(=O)[nH]1 (single isomer, unassigned) [Example 48] | 9.32 | 8.10 | 8.05 |
| Cc1cc(C)c(CNC(=O)c2cc(Br)c3c(c2C)OC(C)(C2CCOC2)O3)c(=O)[nH]1 (stereo not drawn) [Example 1, 7-Bromo-N-[(4,6-dimethyl-2-oxo-1,2-dihydropyridin-3-yl)methyl]-2,4-dimethyl-2-(tetrahydrofuran-3-yl)-1,3-benzodioxole-5-carboxamide] | 7.54 | 7.62 | 6.85 |
| Cc1cc(C)c(CNC(=O)c2cc(Br)c3c(c2C)OC(C)(C24CC(N(C)C)(C2)C4)O3)c(=O)[nH]1 (stereo not drawn) [Example 3, 7-Bromo-2-[3-(dimethylamino)-1-bicyclo[1.1.1]pentanyl]-N-[(4,6-dimethyl-2-oxo-1,2-dihydropyridin-3-yl)methyl]-2,4-dimethyl-1,3-benzodioxole-5-carboxamide] | 7.59 | 7.52 | 6.18 |
| Cc1cc(C)c(CNC(=O)c2cc(Br)c3c(c2C)OC(C)(C2CC4(CC(N(C)C)C4)C2)O3)c(=O)[nH]1 (stereo not drawn) [Example 4, 7-Bromo-2-[2-(dimethylamino)spiro[3.3]heptan-6-yl]-N-[(4,6-dimethyl-2-oxo-1,2-dihydropyridin-3-yl)methyl]-2,4-dimethyl-1,3-benzodioxole-5-carboxamide] | 8.08 | 7.60 | 6.89 |
| CCN1CC2(CC(C3(C)Oc4c(Br)cc(C(=O)NCc5c(C)cc(C)[nH]c5=O)c(C)c4O3)C2)C1 (stereo not drawn) [Example 5, 7-Bromo-N-[(4,6-dimethyl-2-oxo-1,2-dihydropyridin-3-yl)methyl]-2-(2-ethyl-2-azaspiro[3.3]heptan-6-yl)-2,4-dimethyl-1,3-benzodioxole-5-carboxamide] | 7.29 | 7.82 | 6.60 |
| Cc1cc(C)c(CNC(=O)c2cc(Br)c3c(c2C)OC(C)(C2CCN(C)C2)O3)c(=O)[nH]1 (stereo not drawn) [Example 6, 7-Bromo-N-[(4,6-dimethyl-2-oxo-1,2-dihydropyridin-3-yl)methyl]-2,4-dimethyl-2-(1-methylpyrrolidin-3-yl)-1,3-benzodioxole-5-carboxamide] | 7.35 | 7.41 | 6.29 |
| CCN1CCC([C@@]2(C)Oc3c(Br)cc(C(=O)NCc4c(C)cc(C)[nH]c4=O)c(C)c3O2)CC1 [Example 7, (2R)-7-Bromo-N-[(4,6-dimethyl-2-oxo-1,2-dihydropyridin-3-yl)methyl]-2-(1-ethyl-4-piperidyl)-2,4-dimethyl-1,3-benzodioxole-5-carboxamide] | 8.08 | 8.44 | 7.42 |
| Cc1cc(C)c(CNC(=O)c2cc(Br)c3c(c2C)O[C@@](C)(C2CCN(C)CC2)O3)c(=O)[nH]1 [Example 8, (2R)-7-Bromo-N-[(4,6-dimethyl-2-oxo-1,2-dihydropyridin-3-yl)methyl]-2,4-dimethyl-2-(1-methyl-4-piperidyl)-1,3-benzodioxole-5-carboxamide] | 8.22 | 7.80 | 7.01 |

From patent US10954219B2, “1,3-benzodioxole derivative” (DAIICHI SANKYO COMPANY, LIMITED, priority 2014, dated 2021)
